Experimental data published in a melting point compilation (Tetko et al.; mined from patent text by program, amines drawn as free bases though some values may be those of a salt).

| melting point [°C] | Structure (SMILES) |
| --- | --- |
| 116 | COC(=O)C1=C(C)N(CCOC(=O)c2ccccc2)C(=O)NC1c1ccc2ccccc2c1 (stereo not drawn) |
| 90 to 93 | CCCOc1cc(OCCC)c2c(=O)c(OCCC)c(-c3ccccc3)oc2c1 |
| 130 to 132 | O=C(NCC(F)(F)F)C1(CCCCc2ccc(NS(=O)(=O)c3ccccc3)cc2)c2ccccc2-c2ccccc21 |
| 163 to 167 | COc1ccc(N2CCc3c(C)nc4c(OC)cccc4c32)c(C)c1 |
| 137 to 138 | COc1ccc2c3c(oc2c1)CC(CC1CCN(Cc2ccccc2)CC1)C3=O (stereo not drawn) |
| 54 to 56 | Ic1cccc2c1CCOC2 |
| 205 | Cc1c(C(=O)Nc2ccc(N3CCCC3)c(C#N)c2)cnn1-c1ccc(Cl)cc1 |
| 132 to 146 | CC(C)CC(CS)C(=O)NCC(=O)NC(CCCNC(=N)N)C(=O)O (stereo not drawn) |
| 78 | CC(=O)SCC(Cc1ccccc1)NC(=O)N1CCN(C)CC1 (single isomer, unassigned; (+)) |
| 119 to 122 | O=C1NCCCCC1c1cccc(OCc2ccccc2)c1 (stereo not drawn) |
| 84 to 85 | CC(=O)OC1Cc2ccc([N+](=O)[O-])cc2C1 (stereo not drawn) |
| 320 | CCOC(=O)c1cnc2cc(NC(C)=O)c(F)cc2c1O |
| 165 to 168 | COC(=O)Nc1ccc(OCc2nc3cc(F)ccc3s2)cc1C |
| 139 to 145 | CN(Cc1ccccc1)C1(CNC(=O)c2ccc(Cl)c(Cl)c2)CCCCC1 |
| 49.5 to 51.5 | CC(=O)CC(=O)OCCCOC(=O)c1ccc(OCCn2ccnc2)cc1 |
| 184 to 185 | Cc1c(CNCC2CCOCC2)[nH]c2c(C)c(NC(=O)c3ccc(OC[C@@H]4CCCO4)cc3)ccc12 |
| 64 to 66 | CCNC(=O)c1ccccc1[Si](C)(C)C |
| 198 to 200 | CCc1c(-c2ccc(OCc3ccccc3)cc2)c2c(C(=O)O)c(C(=O)O)c3c(OC)ccc1n32 |
| 125 to 126 | CCOc1nn(-c2ccc(C(F)(F)F)cc2)cc1CCCOc1ccc(CCC(=O)O)cc1OC |
| 82 to 87 | CCOC(=O)CNc1nc(Cl)nc(Cl)n1 |
| 89 to 90 | CCCCCCC#Cc1ccc(/C=C(/C(=O)O)C(=O)OCC)o1 |
| 175 to 179 | CC(C)(C)c1cc(C(=O)Nc2nc(CC(=O)NCCN3CCN(c4ncccn4)CC3)cs2)cc(C(C)(C)C)c1O |

| melting point [°C] | Structure (SMILES) |
| --- | --- |
| > 250 | Cc1ccc(S(=O)(=O)n2c(=O)[nH]c3cc(Cl)ccc3c2=O)cc1C |
| 187 to 188 | N#CCCNC(=O)c1cccc(-c2cccc3nn(Cc4cccc(C(F)(F)F)c4)cc23)c1 |
| 117 to 118 | CCOC(=S)c1cnc(Cc2ccccc2)nc1N |
| 82 | CCOP(=O)(OCC)C(c1ccccc1)N(CCCl)C(N)=O (stereo not drawn) |
| 131 to 132 | OCCNC(=S)NC(=Nc1cccc2ccccc12)c1ccccc1 |
| 138 to 140 | O=S1NC(Cc2coc3ccccc23)=NO1 (stereo not drawn) |
| 41 | COc1ccc(Br)cc1C1=NC(C)(C)CO1 |
| 80.5 to 82.5 | COc1cc(C(C)(C)C)c(OC)cc1I |
| 64 to 65 | COCc1cc2ccccc2oc1=Nc1ccccc1 |
| 219 to 221 | CC(N(C(=O)c1ccc(C(F)(F)F)cc1)[C@H](C)C(=O)O)[C@](O)(Cn1cncn1)c1ccc(F)cc1F (mixture of isomers) |
| 56 to 58 | CC(=O)C(C)(C)CS(=O)(=O)c1ccccc1 |
| 155 | O=C1Nc2ccc(F)cc2C(C#Cc2ccccn2)(C(F)(F)F)N1 (racemic) |
| 70 to 71 | CCN(CC)c1ccc(/C=C/c2c(F)cccc2F)cc1 |
| 105 to 106 | CCCCCCNC(=O)[C@@H]1CCCN1C(=O)[C@@H](N)C(C)C |
| 87 to 90 | COC=C(C(=O)OC)N(C)c1cc(-c2cccc(OC)c2)ncn1 |
| 191 to 193 | CC1CCCC1(Oc1ccc(CC(=O)c2ccc3c(c2)CCC3)cc1)C(=O)O (stereo not drawn) |
| 116 to 118 | COc1ccc(N(CCCC(O)CO)S(=O)(=O)c2c(F)c(F)c(F)c(F)c2F)cc1 (stereo not drawn) |
| 157 to 158 | CC(Cc1sc(Br)cc1Cl)NC(=O)c1cn(C)nc1C(F)F (stereo not drawn) |
| 93 to 95 | CS(=O)(=O)N(Cc1ccc(F)cc1)c1cccnc1 |
| 149 to 151 | CC(C)n1nc(-c2sc(NC3CCCCC3)nc2-c2ccccc2)ccc1=O |
| 305 to 307 | O=C1Nc2cc(Cl)ccc2C(=O)C1c1cccs1 (stereo not drawn) |
| 177 to 178 | CCCc1c(OCCCCC(=O)c2ccc3cc(OC)c(OC)cc3c2)ccc(C(=O)O)c1O |

| melting point [°C] | Structure (SMILES) |
| --- | --- |
| 263 | Cn1c(=O)c(C#N)c(N2CCN(C(=O)c3ccco3)CC2)c2cc(F)ccc21 |
| 152 | COc1cc(-c2nc3ccc(OCC(C)N(C)C)cc3n2Cc2ccccc2Br)cc(OC)c1OC (stereo not drawn) |
| 268 to 270 | O=C(Nc1ccccc1)c1ccc2c(c1)S(=O)(=O)NCN2C1CC1 |
| 159 to 161 | O=C(Nc1cccc(-c2nnn[nH]2)c1)C(=O)N1CCC(Cc2ccccc2)CC1 |
| 208 to 211 | O=c1c2ccccc2cc2n1CCS2(=O)=O |
| 201 to 203 | O=C1C(=Cc2ccccc2)CS(=O)(=O)CC1=Cc1ccccc1 |
| 136 | CSc1ccc(-c2nn(CC3CC3)c(=S)cc2-c2ccc(F)cc2)cc1 |
| 265 to 268 | Nc1cc2c(Nc3ccc(Br)c(Br)c3)ncnc2cn1 |
| 151 to 152 | IC#CCn1c2ccccc2c2ccccc21 |
| 164 to 166 | Cc1cccc2ncc(C(=O)NC(C)(C)C)c(=O)n12 |
| 80 to 81 | Cc1cccc(-c2nc(Cl)cc(Cl)n2)c1 |
| 202 to 205 | CNC(=S)N(C)NC(=O)c1cccc(F)c1 |
| 97 to 99 | Cc1ccc(-c2n[nH]cc2C=O)s1 |
| 148 to 150 | O=C(NCC1CCCC1)c1ccc2cc[nH]c2c1 |
| 208 to 209 | NC(=O)NN=Cc1ccc(OC2CCOCC2)cc1 |
| 178 | Cc1ccc(-c2nc3ccc(O)cc3n2Cc2ccccc2C(F)(F)F)cc1C |
| 231 to 233 | CC(=O)OC1CCC2(C)C(=CCC3C2C(OC(C)=O)CC2(C)C3CCC2(O)C(=O)CO)C1 (stereo not drawn) |
| 144 to 145 | O=C1c2cc(Cl)c(Cl)cc2C(=O)N1CCCl |
| 112 to 120 | O[C@@H](CNCCOc1ccc2oc(-c3ccon3)cc2c1)c1cccc(Cl)c1 |
| 137 | CCCCOc1ccc(S(=O)(=O)C2(C(=O)O)CCN(Cc3ccc(C)cc3)CC2)cc1 |
| 131 to 133 | CCC1(CCCCCl)C(=O)Nc2cc(F)c(Cl)cc21 (stereo not drawn) |
| 143 to 145 | CN(C)CC1CCc2cc(NC(=O)c3ccc(-c4ccc(Cl)c(Cl)c4)cc3)ccc2C1 (stereo not drawn) |

| Structure (SMILES) | melting point [°C] |
| --- | --- |
| N#Cc1nn(-c2c(Cl)cc(C(F)(F)F)cc2Cl)c(Sc2ccccc2)c1SC(F)(F)F | 84 to 86 |
| C=CC(=O)NC(=O)N1CC1C#N (stereo not drawn) | 158 to 160 |
| CN1C(=S)C(NC(=O)CCC2CCCCC2)N=C(c2ccccc2)c2ccccc21 (stereo not drawn) | 219 to 221 |
| CC(C)OC(=O)Nc1ccc(Cl)c(-c2ccnc3c(C(=O)c4cccs4)cnn23)c1 | 234 to 236 |
| CN(C)C1(c2ccccc2)CCC(NC2c3ccccc3-c3ccccc32)CC1 (stereo not drawn) | 202 to 205 |
| COc1cc(O)c2c(c1)[C@H]1CN(C)CC[C@@H]1CC2=O (relative stereo) | > 250 |
| CCOC(=O)C1(C(=O)OCC)CCC2(CC1)NCCc1cc(OC)ccc12 | 81 to 83 |
